Measured values: patent US20240425496A1, “AZETIDINYL PYRIMIDINES AND USES THEREOF” (Aerie Pharmaceuticals, Inc., priority 2021, published 2024)

What was measured:
TYK2 = TYK2 (Homo sapiens (Human), UniProt P29597); assay: JAK kinase assay (KINASE-GLO luminescent), TYK2 enzyme; type: biochemical; settings: TYK2 enzyme 10 nM, Abl peptide substrate
Description: (§1) All compounds were initially prepared as 10 mM stocks in anhydrous dimethylsulfoxide (DMSO). […] Test compounds were then serially diluted 1:5 in DMSO for an 11-point concentration response and further diluted in the assay buffer bringing all compound concentrations to a final range of 100 μM to 10 μM in 2.5% DMSO. […] The reaction was initiated by the addition of 10 μL of 4× stock solution ATP (2 μM). Reactions were thoroughly mixed manually, covered, and allowed to incubate at room temperature for 75 min. Protein kinase activity was quantitated using Promega's KINASE-GLO™ luminescent Kinase Assay Kit according to the manufacturer's directions. ATP concentrations remaining in Test wells following the termination of the enzymatic reaction were compared against control wells containing equivalent amounts of DMSO containing no inhibitor (CTRL). […] Percent of Control (POC) values were determined for each concentration of compound tested according to the equation: […]
(§2) IC50 values were calculated using the following 4-parameter logistic curve-fitting algorithm:
(§3) Compounds were prepared in the exact same manner as described in the ROCK Kinase Assay with the exception to the substrate and enzyme. […] All other steps and solutions remain identical to the ROCK Kinase Assay above.

JAK1 = JAK1 (Homo sapiens (Human), UniProt P23458); assay: JAK kinase assay (KINASE-GLO luminescent), JAK1 enzyme; type: biochemical; settings: JAK1 enzyme 10 nM, Abl peptide substrate
Sequence of JAK1 (P23458 whole entry, species assumed): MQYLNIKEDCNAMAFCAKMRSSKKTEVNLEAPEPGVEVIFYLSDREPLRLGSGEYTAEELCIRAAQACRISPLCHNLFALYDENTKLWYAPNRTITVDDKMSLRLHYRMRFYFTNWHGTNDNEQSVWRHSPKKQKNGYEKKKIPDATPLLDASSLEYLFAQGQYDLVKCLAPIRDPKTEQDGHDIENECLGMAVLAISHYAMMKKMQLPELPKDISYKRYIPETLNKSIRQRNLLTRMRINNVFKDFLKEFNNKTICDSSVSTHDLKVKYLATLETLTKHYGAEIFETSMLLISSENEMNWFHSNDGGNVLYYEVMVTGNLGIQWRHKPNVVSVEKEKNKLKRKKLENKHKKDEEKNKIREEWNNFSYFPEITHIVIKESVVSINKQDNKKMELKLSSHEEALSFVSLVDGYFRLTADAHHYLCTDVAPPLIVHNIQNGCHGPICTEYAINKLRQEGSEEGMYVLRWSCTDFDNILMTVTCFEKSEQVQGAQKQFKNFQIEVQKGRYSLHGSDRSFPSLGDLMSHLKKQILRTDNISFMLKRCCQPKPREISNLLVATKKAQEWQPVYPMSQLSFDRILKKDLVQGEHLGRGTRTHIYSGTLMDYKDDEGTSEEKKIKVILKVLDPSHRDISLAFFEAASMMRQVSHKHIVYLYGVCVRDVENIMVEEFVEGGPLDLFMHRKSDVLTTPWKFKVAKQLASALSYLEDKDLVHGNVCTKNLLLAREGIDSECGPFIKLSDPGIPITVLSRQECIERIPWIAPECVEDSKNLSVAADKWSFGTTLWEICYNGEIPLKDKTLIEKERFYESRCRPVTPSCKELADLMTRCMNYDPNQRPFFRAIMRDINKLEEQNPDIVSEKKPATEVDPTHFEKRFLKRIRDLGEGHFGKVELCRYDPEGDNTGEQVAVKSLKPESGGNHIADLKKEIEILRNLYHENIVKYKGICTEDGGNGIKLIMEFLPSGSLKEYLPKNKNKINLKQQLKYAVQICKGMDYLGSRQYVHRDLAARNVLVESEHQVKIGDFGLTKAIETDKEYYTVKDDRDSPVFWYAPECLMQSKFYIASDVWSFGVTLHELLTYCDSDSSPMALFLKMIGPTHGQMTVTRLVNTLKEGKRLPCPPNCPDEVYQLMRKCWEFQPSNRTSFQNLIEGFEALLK
Description: as §1, §2, §3

Sequence of TYK2 (P29597 whole entry, species assumed): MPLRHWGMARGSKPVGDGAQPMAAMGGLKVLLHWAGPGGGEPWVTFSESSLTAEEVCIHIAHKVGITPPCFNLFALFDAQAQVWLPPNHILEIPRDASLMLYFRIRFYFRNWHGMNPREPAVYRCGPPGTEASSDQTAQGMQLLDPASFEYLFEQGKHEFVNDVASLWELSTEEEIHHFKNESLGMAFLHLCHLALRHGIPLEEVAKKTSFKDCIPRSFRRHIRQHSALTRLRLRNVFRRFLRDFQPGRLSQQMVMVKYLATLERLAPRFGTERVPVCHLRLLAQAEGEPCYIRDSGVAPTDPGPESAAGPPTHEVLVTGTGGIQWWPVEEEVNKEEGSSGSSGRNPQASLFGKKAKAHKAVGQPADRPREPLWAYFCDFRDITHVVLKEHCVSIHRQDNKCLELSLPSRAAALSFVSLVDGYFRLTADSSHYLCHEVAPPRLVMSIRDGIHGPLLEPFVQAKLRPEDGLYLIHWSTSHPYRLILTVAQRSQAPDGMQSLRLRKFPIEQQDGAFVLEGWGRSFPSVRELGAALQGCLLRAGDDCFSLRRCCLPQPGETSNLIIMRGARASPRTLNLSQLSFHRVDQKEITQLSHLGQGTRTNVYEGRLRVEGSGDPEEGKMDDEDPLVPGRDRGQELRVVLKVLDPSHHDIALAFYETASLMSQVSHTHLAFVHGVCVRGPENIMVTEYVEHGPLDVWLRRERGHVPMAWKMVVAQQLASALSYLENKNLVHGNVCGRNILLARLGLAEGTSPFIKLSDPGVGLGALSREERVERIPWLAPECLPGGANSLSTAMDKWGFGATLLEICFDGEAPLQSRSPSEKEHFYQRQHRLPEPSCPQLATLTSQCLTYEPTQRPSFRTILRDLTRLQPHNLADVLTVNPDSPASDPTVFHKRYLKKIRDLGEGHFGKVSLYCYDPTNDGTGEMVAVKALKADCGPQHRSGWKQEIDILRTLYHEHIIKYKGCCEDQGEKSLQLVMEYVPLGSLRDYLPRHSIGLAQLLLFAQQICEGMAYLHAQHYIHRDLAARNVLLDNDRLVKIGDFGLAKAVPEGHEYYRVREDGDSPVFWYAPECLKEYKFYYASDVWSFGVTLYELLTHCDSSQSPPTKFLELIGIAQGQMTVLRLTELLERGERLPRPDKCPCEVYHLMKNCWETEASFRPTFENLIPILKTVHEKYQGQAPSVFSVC

Cc1cnc(Nc2ccc3c(c2)CN(C)C3)nc1N1CC(CC#N)(N2CCC3(CC2)CC3)C1 [E114]
IC50 (TYK2): < 20 nM
IC50 (JAK1): < 20 nM

Cc1cc(Nc2ncc(C)c(N3CC(O)(CC#N)C3)n2)sn1 [E114a]
IC50 (TYK2): < 10 nM
IC50 (JAK1): < 20 nM

Cc1cnc(Nc2ccc(N3CCN(C)CC3)c(C(F)(F)F)c2)nc1N1CC2(C1)CC2(F)F [E115]
IC50 (TYK2): < 100 nM
IC50 (JAK1): < 250 nM

Cc1cc(Nc2ncc(C)c(N3CC(CC#N)(N4CCCN5CCCC5C4)C3)n2)sn1 (stereo not drawn) [E115a]
IC50 (TYK2): < 50 nM
IC50 (JAK1): < 200 nM

Cc1cnc(Nc2cccc(CN(C)C)c2)nc1N1CC(CC#N)(N2CCCC3(C2)CC3(F)F)C1 (stereo not drawn) [E116]
IC50 (TYK2): < 10 nM
IC50 (JAK1): < 10 nM

Cc1cc(Nc2ncc(C)c(N3CC(CCF)(N4CCCCC4)C3)n2)sn1 [E116a]
IC50 (TYK2): < 10 nM
IC50 (JAK1): < 50 nM

Cc1cc(Nc2ncc(C)c(N3CC(N)(CC#N)C3)n2)sn1 [E117-AA]
IC50 (TYK2): < 50 nM
IC50 (JAK1): < 100 nM

Cc1cc(Nc2ncc(C)c(N3C4CC3CN(CCC#N)C4)n2)sn1 [E117-AD]
IC50 (TYK2): < 1000 nM
IC50 (JAK1): < 1000 nM

Cc1cc(Nc2ncc(C)c(N3CC(CCF)(N4CCN5C[C@H](F)C[C@H]5C4)C3)n2)sn1 [E117-A]
IC50 (TYK2): < 10 nM
IC50 (JAK1): < 50 nM

Cc1cc(Nc2ncc(C)c(N3CC(CC#N)(N4CC5NCCOC5C4)C3)n2)sn1 (stereo not drawn) [E117-B]
IC50 (TYK2): < 100 nM
IC50 (JAK1): < 50 nM

Cc1cc(Nc2ncc(C)c(N3CC(CC#N)(N4CCC(F)(F)CC4)C3)n2)sn1 [E117-E]
IC50 (TYK2): < 5 nM
IC50 (JAK1): < 5 nM

Cc1cc(Nc2ncc(C)c(N3CC(CC#N)(N4CCN5CC6(CC6)C[C@H]5C4)C3)n2)sn1 [E117-G]
IC50 (TYK2): < 5 nM
IC50 (JAK1): < 5 nM

Cc1cc(Nc2ncc(C)c(N3CC(CC#N)(N4CCN(CCCF)CC4)C3)n2)sn1 [E117-J]
IC50 (TYK2): < 5 nM
IC50 (JAK1): < 5 nM

C#CC1(O)CN(c2nc(Nc3cc(C)ns3)ncc2C)C1 [E117-N]
IC50 (TYK2): < 5 nM
IC50 (JAK1): < 10 nM

Cc1cc(Nc2ncc(C)c(N3CC4(C3)CC4(F)F)n2)sn1 [E117-P]
IC50 (TYK2): < 5 nM
IC50 (JAK1): < 10 nM

Cc1cc(Nc2ncc(C)c(N3CC(CC#N)(N4CCN(C)C(CCF)C4)C3)n2)sn1 (stereo not drawn) [E117-R]
IC50 (TYK2): < 5 nM
IC50 (JAK1): < 10 nM

Cc1cnc(Nc2cc(CN(C)C)ns2)nc1N1CC(CC#N)(N2CCN3CCCC[C@H]3C2)C1 [E117-S]
IC50 (TYK2): < 10 nM
IC50 (JAK1): < 25 nM

Cc1cc(Nc2ncc(C)c(N3CC(CCC#N)C3)n2)sn1 [E117-T]
IC50 (TYK2): < 10 nM
IC50 (JAK1): < 25 nM

Cc1cc(Nc2ncc(C)c(N3CC(CC(F)F)C3)n2)sn1 [E117-U]
IC50 (TYK2): < 10 nM
IC50 (JAK1): < 25 nM

Cc1cc(Nc2ncc(C)c(N3C4CC3CN(CC#N)C4)n2)sn1 [E117-V]
IC50 (TYK2): < 50 nM
IC50 (JAK1): < 50 nM

Cc1cc(Nc2ncc(C)c(N3CC(=CC#N)C3)n2)sn1 [E117-X]
IC50 (TYK2): < 75 nM
IC50 (JAK1): < 75 nM

Cc1cc(Nc2ncc(C)c(N3CC(CC#N)(CN4CCN5C[C@H](F)C[C@H]5C4)C3)n2)sn1 [E117-Y]
IC50 (TYK2): < 50 nM
IC50 (JAK1): < 100 nM

Cc1cnc(Nc2cccnc2)nc1N1CC(CC#N)(N2CCN(C)CC2)C1 [E117]
IC50 (TYK2): < 20 nM
IC50 (JAK1): < 50 nM

Cc1cc(Nc2ncc(C)c(N3CC(CC#N)(N4CCN5C[C@H](C)C[C@H]5C4)C3)n2)sn1 [E117a]
IC50 (TYK2): < 10 nM
IC50 (JAK1): < 50 nM

Cc1cnc(Nc2ccc(N3CCOCC3)cc2)nc1N1CC(CC#N)(N2CCN(C)CC2)C1 [E118]
IC50 (TYK2): < 10 nM
IC50 (JAK1): < 50 nM

Cc1cnc(Nc2ccc3c(c2)CN(C)C3)nc1N1CC(CC#N)(N2CCC(F)(F)CC2)C1 [E119-A]
IC50 (TYK2): < 10 nM
IC50 (JAK1): < 10 nM

Cc1cnc(Nc2ccc(N3CCOCC3)c(F)c2)nc1N1CC(CC#N)(N2CCCCC2)C1 [E119]
IC50 (TYK2): < 10 nM
IC50 (JAK1): < 25 nM

Cc1cnc(Nc2cnn(C)c2)nc1N1CC(CC#N)(N2CCN3C[C@H](F)C[C@H]3C2)C1 [E152a, 2-(3-((7R,8aS)-7-fluorohexahydropyrrolo[1,2-a]pyrazin-2(1H)-yl)-1-(5-methyl-2-((1-methyl-1H-pyrazol-4-yl)amino)pyrimidin-4-yl)azetidin-3-yl)acetonitrile]
IC50 (TYK2): < 10 nM
IC50 (JAK1): < 10 nM

[2H]C([2H])([2H])n1cc(Nc2ncc(C)c(N3CC(CC#N)(N4CCN5C[C@H](F)C[C@H]5C4)C3)n2)cn1 [E156a]
IC50 (TYK2): < 10 nM
IC50 (JAK1): < 10 nM

Cc1cnc(Nc2cnn(C)c2)nc1N1CC(CC#N)(N2CCN3CC(F)(F)C[C@H]3C2)C1 [E157a]
IC50 (TYK2): < 10 nM
IC50 (JAK1): < 10 nM

Cc1cnc(Nc2cnn(C)c2)nc1N1CC(CC#N)(N2CCN3CCCC[C@@H]3C2)C1 [E159a]
IC50 (TYK2): < 100 nM
IC50 (JAK1): < 120 nM

Cc1cnc(Nc2cnn(C)c2)nc1N1CC(CC#N)(N2CCC3C(CC2)C3(F)F)C1 (stereo not drawn) [E160a]
IC50 (TYK2): < 10 nM
IC50 (JAK1): < 10 nM

Cc1cnc(Nc2cnn(C)c2)nc1N1CC(CC#N)(N2CC3(C2)CC3(F)F)C1 [E161a]
IC50 (TYK2): < 20 nM
IC50 (JAK1): < 20 nM

Cc1cnc(Nc2cnn(C)c2)nc1N1CC(CC#N)(N2CCN3CCC[C@H]3C2)C1 [E162a]
IC50 (TYK2): < 50 nM
IC50 (JAK1): < 50 nM

Cn1cc(Nc2ncc(Cl)c(N3CC(CC#N)(N4CCN5C[C@H](F)C[C@H]5C4)C3)n2)cn1 [E163a]
IC50 (TYK2): < 10 nM
IC50 (JAK1): < 10 nM

Cc1cnc(Nc2cnn(C)c2)nc1N1CC(CC#N)(N2CCn3cccc3C2)C1 [E164a]
IC50 (TYK2): < 10 nM
IC50 (JAK1): < 10 nM

Cc1cnc(Nc2cnn(C)c2)nc1N1CC(CC(F)F)(C2CC2)C1 [E165a]
IC50 (TYK2): < 10 nM
IC50 (JAK1): < 10 nM

COC(=O)CC1(N2CCN3C[C@H](F)C[C@H]3C2)CN(c2nc(Nc3cnn(C)c3)ncc2C)C1 [E166a]
IC50 (TYK2): < 200 nM
IC50 (JAK1): < 1000 nM

Cc1cnc(Nc2cnn(C)c2)nc1N1CC(CCO)(N2CCN3C[C@H](F)C[C@H]3C2)C1 [E167a]
IC50 (TYK2): < 50 nM
IC50 (JAK1): < 50 nM

Cc1cnc(Nc2cnn(C)c2)nc1N1CC(CCC#N)(N2CCN3C[C@H](F)C[C@H]3C2)C1 [E168a]
IC50 (TYK2): < 20 nM
IC50 (JAK1): < 20 nM

Cc1cnc(Nc2cnn(C)c2)nc1N1CC(N2CCN3C[C@H](F)C[C@H]3C2)C1 [E169a]
IC50 (TYK2): < 120 nM
IC50 (JAK1): < 250 nM

CCC1(N2CCN3C[C@H](F)C[C@H]3C2)CN(c2nc(Nc3cnn(C)c3)ncc2C)C1 [E170a]
IC50 (TYK2): < 100 nM
IC50 (JAK1): < 50 nM

Cc1cnc(Nc2cnn(C)c2)nc1N1CC(CC#N)(N2CCN3CCCC[C@H]3C2)C1 [E171a]
IC50 (TYK2): < 10 nM
IC50 (JAK1): < 10 nM

Cc1cnc(Nc2cnn(C)c2)nc1N1CC(CC#N)(N2CC3(C2)CC(F)(F)CO3)C1 [E172a]
IC50 (TYK2): < 100 nM
IC50 (JAK1): < 100 nM

Cc1cnc(Nc2cnn(C)c2)nc1N1CC(CC#N)(N2CCN3CC(C)(C)C[C@H]3C2)C1 [E173a]
IC50 (TYK2): < 10 nM
IC50 (JAK1): < 10 nM

Cc1cnc(Nc2cnn(C)c2)nc1N1CC(=CC#N)C1 [E174a]
IC50 (TYK2): < 200 nM
IC50 (JAK1): < 100 nM

Cc1cnc(Nc2cnn(C)c2)nc1N1CC(O)(CF)C1 [E175-A]
IC50 (TYK2): < 120 nM
IC50 (JAK1): < 100 nM

Cc1cnc(Nc2cnn(C)c2)nc1N1CC(O)(CC2CC2)C1 [E175-B]
IC50 (TYK2): < 200 nM
IC50 (JAK1): < 200 nM

Cc1cnc(Nc2cnn(C3CC3)c2)nc1N1CC(CC#N)(N2CCN3C[C@H](F)C[C@H]3C2)C1 [E175-C]
IC50 (TYK2): < 10 nM
IC50 (JAK1): < 10 nM

COCCN1CCN(C2(CC#N)CN(c3nc(Nc4cnn(CCOC)c4)ncc3C)C2)CC1 [E175-D]
IC50 (TYK2): < 120 nM
IC50 (JAK1): < 120 nM

COCCN1CCN(C2(CC#N)CN(c3nc(Nc4cnn(CCOC)c4)ncc3C)C2)CC1 [E175-E]
IC50 (TYK2): < 200 nM
IC50 (JAK1): < 200 nM

Cc1cnc(Nc2cnn(C)c2)nc1N1CC(CC#N)(N2CCN3C[C@H](C)C[C@H]3C2)C1 [E175a]
IC50 (TYK2): < 50 nM
IC50 (JAK1): < 50 nM

Cc1cnc(Nc2ccc(N3CCN(C)CC3)cc2)nc1N1CC(CC#N)(N(C)C2CC2)C1 [E213]
IC50 (TYK2): < 10 nM
IC50 (JAK1): < 50 nM

Cc1cnc(Nc2ccc3c(c2)CN(C)C3)nc1N1CC(CC(F)F)(C2CC2)C1 [E216-A]
IC50 (TYK2): < 10 nM
IC50 (JAK1): < 10 nM

Cc1cnc(Nc2ccc(S(C)(=O)=O)cc2)nc1N1CC(CC(F)F)(C2CC2)C1 [E216-B]
IC50 (TYK2): < 10 nM
IC50 (JAK1): < 10 nM

Cc1cnc(Nc2ccc3c(c2)CN(C)C3)nc1N1CC(CC#N)(N(C)C2CC2)C1 [E216-C]
IC50 (TYK2): < 10 nM
IC50 (JAK1): < 10 nM

Cc1cnc(Nc2ccc3c(c2)CN(C)C3)nc1N1CC(CC#N)(N2CCC(F)CC2)C1 [E216-E]
IC50 (TYK2): < 10 nM
IC50 (JAK1): < 10 nM

Cc1cnc(Nc2ccccc2)nc1N1CC(CC#N)(N2CCN3CCCC[C@H]3C2)C1 [E216-F]
IC50 (TYK2): < 10 nM
IC50 (JAK1): < 20 nM

Cc1cnc(Nc2ccc3c(c2)CN(C)C3)nc1N1CC(CC#N)(N2CCC3(CC2)COC3)C1 [E216-G]
IC50 (TYK2): < 10 nM
IC50 (JAK1): < 10 nM

Cc1cnc(Nc2ccc(N3CCOCC3)c(F)c2)nc1N1CC(CCC#N)C1 [E216-K]
IC50 (TYK2): < 10 nM
IC50 (JAK1): < 50 nM

Cc1cnc(Nc2ccc(C3COC3)cc2)nc1N1CC(CC#N)(N2CCN(C)CC2)C1 [E216-L]
IC50 (TYK2): < 20 nM
IC50 (JAK1): < 50 nM

Cc1cnc(Nc2ccccc2)nc1N1CC(CC#N)(N2CCN(C)CC2)C1 [E216-N]
IC50 (TYK2): < 30 nM
IC50 (JAK1): < 70 nM

Cc1cnc(Nc2ccc3c(c2)B(O)OC3)nc1N1CC(CC#N)(N2CCN3C[C@H](F)C[C@H]3C2)C1 [E216-O]
IC50 (TYK2): < 30 nM
IC50 (JAK1): < 120 nM
